# Results published in patent publication US6482797B1, “N-terminal site selective inhibitors of human angiotensin conversion enzyme (ACE)” (Commissariat A l'Energie Atomique, priority 1998, dated 2002).
# Like-named read-outs stand apart in the source and are kept apart here. Where a SMILES comes first, the peptide text is derived from it.
# Assays:
# [1] = target: T1, C-terminal site of human angiotensin-converting enzyme (Active C-terminal ACE) (Homo sapiens, UniProt P12821, H390K/H394K); experiment: ACE inhibition, quenched fluorescence substrate, C-terminal mutant (N-terminal site inactive); assay type: biochemical; details: C-terminal mutant of ACE from CHO cells
# T1 construct: made in house; host or cells: CHO cells
# Description: (§1) Said mixtures were evaluated at final peptide concentrations of 200 nM in order to determine their ACE inhibitory capacity. To assay ACE, a new quenched fluorescence ACE substrate (Mca-Ala-Ser-Asp-Lys-Dpa) was developed, where Mca represents methoxy coumarine and Dpa 2-(N-dinitrophenyl)aminopropionic acid. Said substrate, which is […], emits an intense fluorescent signal after splitting, between the Asp and Lys residues, by ACE. Using this type of substrate, it is possible to test the inhibitory power of a very large number of compounds in Elisa plates.
# (§2) The inhibitory power of the compounds is determined in a conventional competition test based on the breakdown of the quenched fluorescence substrate […]. The breakdown of said substrate by ACE results in the observation of a fluorescent signal at 400 nm, when the sample is excited at 328 nm. The inhibition experiments are conducted in Elisa plate wells, in volumes of 200 μl of buffer: pH 6.8, 50 mM Hepes, 200 mM NaCl, 1 mM ZnCl2, at 25° C., in a Dynatech Fluorolite 1000 type unit. The concentration of the substrate in a typical experiment is 20 μM. For the inhibition experiments, the inhibitor is placed in the presence of the enzyme for 45 min, and the reaction is then initiated by simply adding a very small volume of substrate. The inhibition percentages are calculated from the initial rate variations in the presence of inhibitor. The breakdown kinetics were determined from the record of the fluorescence variations over a 40 min time interval.
# (§3) Said mutants were produced from CHO cells.
# [2] = target: T2, N-terminal site of human angiotensin-converting enzyme (Active N-terminal ACE) (Homo sapiens, UniProt P12821, H988K/H992K); experiment: ACE inhibition, quenched fluorescence substrate, N-terminal mutant (C-terminal site inactive); assay type: biochemical; details: for degree of selectivity in favour of the N-terminal site (FIG. 3): N-terminal site at 100 nM, C-terminal site at 5 μM
# T2 construct: made in house; host or cells: CHO cells
# Description: as §1, §2, §3
# [3] = test system: ACE N-terminal domain versus C-terminal domain; details: in vitro; cited from earlier work
# [4] = test system: plasma renin; experiment: Plasma renin level (angiotensin I formed) after infusion; assay type: in vivo; details: mice; RXP 407 0.1, 1, 10 mg/kg; Lisinopril 10 mg/kg
# Description: In this example, the effect of RXP 407 on the levels of renin, another enzyme involved in arterial pressure regulation, is determined. Inhibition of ACE with a conventional inhibitor of said enzyme stops the hydrolysis of angiotensin I into angiotensin II. Angiotensin is indeed one of the physiological substrates of ACE. The decrease in the angiotensin II level in plasma by a retrocontrol mechanism, increases the plasma level of renin, an enzyme directly involved in the production of angiotensin I, from angiotensinogen.
# In this way, the inhibition of ACE may be monitored indirectly by the plasma renin level.
# This level may be evaluated by the capacity of renin in plasma samples to hydrolyse excess angiotensinogen present in mouse plasma. The formation of angiotensin I is then measured by a radioimmunological assay and the renin level is expressed in ng of angiotensin I formed per ml of plasma and per hour of incubation.
# [5] = target: T3, wild human ACE (Homo sapiens, UniProt P12821); experiment: Inhibition of natural ACE as a function of RXP 407 concentration; assay type: biochemical; details: wild human ACE from CHO cells
# T3 construct: made in house; host or cells: CHO cells
# Description: as §2
# In this example, the RXP 407 peptide is used as a natural ACE inhibitor, and the effect of the RXP 407 concentration (in nM) on the ACE inhibition percentage is studied.
# The inhibitory power of the compound is determined as in example 1 using wild human ACE produced by CHO cells according to the protocol described in the reference Wei et al, J. Biol. Chem. (1992) 267, 13398-13405 [14].
# [6] = Elimination and metabolism of tritiated RXP 407 in vivo; set-up: species or system rats; details: rat
# Description: (§4) For this purpose, an RXP 407 comprising three tritium atoms on the N-acetyl group is synthesised to be able to conduct a study on the pharmacokinetics and metabolism of said molecule in rats, by injecting said product at doses of 0.1, 1 and 5 mg/kg by intravenous bolus.
# [7] = Plasma concentration of tritiated RXP 407 after intravenous bolus; set-up: species or system rats; details: rat, in vivo, 5 mg/kg
# Description: as §4
# The plasma concentration of RXP 407 as a function of time is then determined.
# The results obtained are represented in FIG. 7. Curve 1 corresponds to 0.1 mg/kg, curve 2 to 1 mg/kg and curve 3 to 5 mg/kg. The dotted curve illustrates the Ki of RXP 407 (20 nM).
# [8] = test system: plasma Ac-Ser-Asp-Lys-Pro (Ac-SDKP); experiment: Plasma Ac-SDKP concentration after 30 minute infusion; assay type: in vivo; details: mice, infusion for 30 minutes; RXP 407 0.1, 1, 10 mg/kg; Lisinopril 10 mg/kg
# Description: For this purpose, the mice undergo an infusion of RXP 407 for 30 minutes, at doses of 0.1, 1 and 10 mg/kg and the Ac-Ser-Asp-Lys-Pro-(Ac-SDKP) peptide concentration of the mouse plasma is determined.
# The Ac-Ser-Asp-Lys-Pro is determined by a competition immunoenzyme assay using polyclonal antibodies and Ac-SDKP linked to Electrophorus Electricus acetyicholinesterase.
# The same plasma Ac-SDKP measurements are made on mice infused with Lisinopril of a 10 mg/kg dose and on non-infused control mice. Lisinopril is an inhibitor used in clinical practice which inhibits both active sites of ACE non-selectively.
# [9] = test system: plasma AcSDKP; details: single dose, healthy volunteer subjects; cited from earlier work
# [10] = N-terminal mutant of ACE from CHO cells, read-out: Ki Active N-terminal ACE
# T1 sequence (P12821 30-1306 H390K/H394K): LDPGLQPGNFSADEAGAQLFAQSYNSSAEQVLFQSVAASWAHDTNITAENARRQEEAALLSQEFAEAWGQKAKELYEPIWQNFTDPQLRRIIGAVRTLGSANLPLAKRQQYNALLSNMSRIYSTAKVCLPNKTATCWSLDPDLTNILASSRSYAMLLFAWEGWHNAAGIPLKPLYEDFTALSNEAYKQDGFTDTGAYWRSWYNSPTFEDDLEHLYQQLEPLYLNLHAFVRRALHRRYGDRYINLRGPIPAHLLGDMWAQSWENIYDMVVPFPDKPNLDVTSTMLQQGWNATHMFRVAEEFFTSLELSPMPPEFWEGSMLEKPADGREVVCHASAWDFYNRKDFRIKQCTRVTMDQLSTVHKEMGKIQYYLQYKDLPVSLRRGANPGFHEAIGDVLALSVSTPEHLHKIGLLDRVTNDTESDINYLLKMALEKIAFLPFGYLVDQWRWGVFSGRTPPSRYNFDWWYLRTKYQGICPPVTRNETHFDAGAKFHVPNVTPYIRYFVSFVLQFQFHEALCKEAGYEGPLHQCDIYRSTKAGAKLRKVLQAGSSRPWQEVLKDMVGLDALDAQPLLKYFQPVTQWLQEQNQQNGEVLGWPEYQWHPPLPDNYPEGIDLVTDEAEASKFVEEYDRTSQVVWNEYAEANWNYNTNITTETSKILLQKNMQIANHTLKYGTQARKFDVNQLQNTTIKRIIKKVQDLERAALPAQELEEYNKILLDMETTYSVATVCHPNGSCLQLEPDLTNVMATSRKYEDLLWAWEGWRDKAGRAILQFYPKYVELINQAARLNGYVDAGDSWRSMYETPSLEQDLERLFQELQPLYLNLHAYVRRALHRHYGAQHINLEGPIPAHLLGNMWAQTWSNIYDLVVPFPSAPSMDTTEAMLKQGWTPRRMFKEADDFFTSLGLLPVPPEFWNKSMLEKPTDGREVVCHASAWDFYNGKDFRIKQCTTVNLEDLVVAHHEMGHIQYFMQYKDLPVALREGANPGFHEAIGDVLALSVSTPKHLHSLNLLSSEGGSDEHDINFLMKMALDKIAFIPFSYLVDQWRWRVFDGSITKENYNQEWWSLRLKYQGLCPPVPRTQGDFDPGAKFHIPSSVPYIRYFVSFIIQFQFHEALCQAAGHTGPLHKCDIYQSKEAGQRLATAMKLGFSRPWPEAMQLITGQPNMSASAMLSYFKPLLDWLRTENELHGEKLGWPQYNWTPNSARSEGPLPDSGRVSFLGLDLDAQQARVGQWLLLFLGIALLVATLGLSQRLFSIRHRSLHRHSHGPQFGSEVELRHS
# T2 sequence (P12821 30-1306 H988K/H992K): as the sequence (P12821 30-1306 H390K/H394K) above, with K361H, K365H, H959K, H963K counted along it
# T3 sequence (P12821 30-1306): as the sequence (P12821 30-1306 H390K/H394K) above, with K361H, K365H counted along it
compound,measurement,setting,value
CC(=O)N[C@@H](C)C(=O)NC(Cc1ccccc1)P(=O)(O)CC(C)C(=O)N[C@@H](C)C(N)=O (stereo partly shown) [Ac-Ala-Pheψ (PO2CH2) Ala-AlaNH2],Ki,[1],200 nM
same,Ki,[2]; [10],15 nM
"CC(=O)N[C@@H](CC(=O)O)C(=O)NC(Cc1ccccc1)P(=O)(O)CC(C)C(=O)N[C@@H](C)C(N)=O (stereo partly drawn) [Ac-Asp-Pheψ (PO2CH2) Ala-AlaNH2, Ac-Asp-PheΨ(PO2CH2)Ala-Ala-NH2]",Ki,[2]; [10],25 nM
same,degree of selectivity in favour of the N-terminal site (FIG. 3),[2],improve the degree of selectivity in favour of the N-terminal site
CC(=O)N[C@@H](CC(=O)O)C(=O)NC(Cc1ccccc1)P(=O)(O)CC(C)C(=O)N[C@@H](C)C(=O)O (stereo partly shown) [Ac-Asp-Pheψ (PO2CH2) Ala-AlaOH],Ki,[1],7 nM
same,Ki,[2]; [10],2 nM
"CC(=O)N[C@@H](CO)C(=O)N[C@@H](CC(=O)O)C(=O)N[C@@H](CCCCN)C(=O)N1CCC[C@H]1C(=O)O [AcSDKP, N-Acetyl-Seryl-Aspartyl-Lysyl-Proline] (Ac-SDKP-OH)",hydrolysed more quickly by the N-terminal domain than by the C-terminal domain,[3],50 times
CC(CP(=O)(O)C(Cc1ccccc1)NC(=O)[C@@H](N)CC(=O)O)C(=O)N[C@@H](C)C(N)=O (stereo partly shown) [H2N-Asp-Pheψ (PO2CH2) Ala-AlaNH2],Ki,[1],800 nM
same,Ki,[2]; [10],5 nM
CC(CP(=O)(O)C(Cc1ccccc1)NC(=O)[C@@H](N)CC(=O)O)C(=O)N[C@@H](C)C(=O)O (stereo partly shown) [H2N-Asp-Pheψ (PO2CH2) Ala-AlaOH],Ki,[1],60 nM
same,Ki,[2]; [10],2 nM
"NCCCC[C@H](N[C@@H](CCc1ccccc1)C(=O)O)C(=O)N1CCC[C@H]1C(=O)O [Lisinopril, reference compound]",plasma renin level (FIG. 9),[4],induces an increase in the plasma renin level
"CC(=O)N[C@@H](CC(=O)O)C(=O)N[C@@H](Cc1ccccc1)P(=O)(O)C[C@@H](C)C(=O)N[C@@H](C)C(N)=O [RXP 407, Ac-Asp-(R)Phe(PO2CH2)-(S)Ala-Ala-NH2]","IC50 values with respect to the N and C-terminal sites of natural ACE (inflection points, FIG. 6)",[5],compatible with the Ki values measured using the ACE mutants
same,Total,[6],100.09±7 % of injected radioactivity
same,eliminated in urine,[6],87%
same,metabolism (structure of the product in urine and faeces),[6],does not undergo any metabolism
same,product detected in the airways,[6],No trace of this product is detected
same,dose excreted,"[6]; iv, total radioactivity",13%
same,plasma RXP 407 concentration,[7],100 ng/mL
same,plasma level of Ac-SDKP peptide (FIG. 8),[8],very significant increase
same,plasma renin level (FIG. 9),[4],does not induce an increase in renin
same,Ki,[2]; [10],12 nM
same,Ki,"[2]; value drawn in plasma concentration figure, read-out: Ki of RXP 407 (dotted curve of FIG. 7)",20 nM
C[C@H](CS)C(=O)N1CCC[C@H]1C(=O)O [captopril],increase of the plasma level of AcSDKP,[9],6 to 7 fold
proline,degree of selectivity in favour of the N-terminal site (FIG. 3),[2],improve the degree of selectivity in favour of the N-terminal site
